Results taken from patent US6410735B1, “1-(4-arylpiperazin-1-y1)-ω-[N-(α,ω-dicarboximido)]-alkanes useful as uro-selective α1-adrenoceptor blockers” (Ranbaxy Laboratories Limited, priority 1997, dated 2002).

What was measured:
Assay type in all cases: cell-based
β1-adrenoceptor = target: T1, β1-adrenoceptor (Rattus norvegicus, UniProt P18090); test: Receptor selectivity, electrically stimulated rat ventricular strips; conditions: read-out: pKB B-adrenergic (converted)
T1 construct: from tissue; host or cells: rat ventricular strips
Protocol: (§1) Selectivity of action of the present compounds was tested against a range of different receptors, e.g., β1- and α2-adrenergic, muscarinic cholinergic, serotoninergic (5-HT2A), histaminergic (H1), angiotensin II, endothelin (ETA and B,), as well as calcium and potassium channels. Rat aorta was used to study the effect of the compounds on 5-HT2A, ETA, calcium and potassium channels. Angiotensin II receptor antagonistic activity was studied in rabbit aorta. Muscarinic cholinergic receptor and ETB receptor antagonistic activity was studied in rat trachea, while guinea pig trachea was used to study H1 receptor antagonistic activity. Electrically stimulated rat vas deferens was used to investigate the effect of α2-adrenoceptors, while β1-adrenoceptor antagonistic activity was studied using electrically stimulated rat ventricular strips. Results of this selectivity study is shown in (Table 2).

ETB receptor = target: T2, ETB receptor (Rattus norvegicus, UniProt P21451); test: Receptor selectivity, rat trachea; conditions: read-out: pKB ETB (converted)
T2 construct: from tissue; host or cells: rat trachea
T2 sequence (P21451 27-442): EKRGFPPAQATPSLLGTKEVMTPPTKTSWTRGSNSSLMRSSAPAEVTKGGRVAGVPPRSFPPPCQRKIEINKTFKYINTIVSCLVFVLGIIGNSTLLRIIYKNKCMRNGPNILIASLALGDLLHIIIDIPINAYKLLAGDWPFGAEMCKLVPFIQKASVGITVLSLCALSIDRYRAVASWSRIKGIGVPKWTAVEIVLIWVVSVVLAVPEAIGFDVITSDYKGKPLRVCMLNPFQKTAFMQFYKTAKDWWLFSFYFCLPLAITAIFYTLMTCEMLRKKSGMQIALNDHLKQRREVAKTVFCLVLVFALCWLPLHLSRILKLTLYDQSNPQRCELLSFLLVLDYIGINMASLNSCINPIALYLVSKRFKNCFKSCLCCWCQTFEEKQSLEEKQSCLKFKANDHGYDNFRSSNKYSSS
Protocol: as §1

Angiotensin II receptor = target: T3, Angiotensin II receptor (Oryctolagus cuniculus, UniProt P34976); test: Receptor selectivity, rabbit aorta; conditions: read-out: pKB Angiotensin II (converted)
T3 construct: from tissue; host or cells: rabbit aorta
T3 sequence (P34976 1-359): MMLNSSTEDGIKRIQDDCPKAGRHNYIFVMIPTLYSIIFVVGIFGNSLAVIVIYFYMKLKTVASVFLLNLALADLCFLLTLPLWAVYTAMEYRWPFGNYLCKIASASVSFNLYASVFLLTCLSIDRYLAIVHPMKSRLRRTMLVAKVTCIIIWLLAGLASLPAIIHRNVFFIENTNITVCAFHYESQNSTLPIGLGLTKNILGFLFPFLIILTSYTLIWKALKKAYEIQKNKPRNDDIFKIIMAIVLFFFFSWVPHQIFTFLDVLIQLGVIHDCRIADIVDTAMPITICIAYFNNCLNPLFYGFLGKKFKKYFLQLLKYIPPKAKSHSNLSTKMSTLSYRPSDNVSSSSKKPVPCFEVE
Protocol: as §1

T1 sequence (P18090 whole entry): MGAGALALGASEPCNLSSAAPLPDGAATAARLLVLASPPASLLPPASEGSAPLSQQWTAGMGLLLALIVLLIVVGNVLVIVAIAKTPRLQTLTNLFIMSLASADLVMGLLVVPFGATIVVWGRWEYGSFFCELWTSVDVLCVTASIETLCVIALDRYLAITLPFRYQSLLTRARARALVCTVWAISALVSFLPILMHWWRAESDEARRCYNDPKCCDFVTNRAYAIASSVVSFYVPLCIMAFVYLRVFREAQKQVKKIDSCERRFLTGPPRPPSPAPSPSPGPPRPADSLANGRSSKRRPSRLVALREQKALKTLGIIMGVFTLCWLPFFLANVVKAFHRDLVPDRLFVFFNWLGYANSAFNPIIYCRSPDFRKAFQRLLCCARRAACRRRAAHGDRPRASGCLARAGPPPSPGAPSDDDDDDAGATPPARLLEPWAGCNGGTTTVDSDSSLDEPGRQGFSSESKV

SMILES | Kb (β1-adrenoceptor) [µM] | Kb (ETB receptor) [µM] | Kb (Angiotensin II receptor) [µM]
COc1ccccc1N1CCN(CCCN2C(=O)CCC2=O)CC1 [Compound 2, 1-[4-(2-Methoxyphenyl)piperazin-1-yl]3-(2,5-dioxopyrrolidin-1-yl)propane] | 63.1 | – | –
COc1ccccc1N1CCN(CCCCN2C(=O)CCC2=O)CC1 [Compound 9, 1-[4-(2-Methoxyphenyl)piperazin-1-yl]-4-(2,5-dioxopyrrolidin-1-yl)butane] | – | 3.98 | 2.51
COc1ccccc1N1CCN(CCCN2C(=O)CCCC2=O)CC1 [Compound 13, 1-[4-(2-Methoxyphenyl)piperazin-1-yl]-3-(2,6-dioxopiperidin-1-yl)propane] | 7.94 | 12.6 | 5.01
